Source: ChEMBL document CHEMBL5370577, “Structurally Diverse Cytotoxic Polyphenols from Garcinia gracilis” (J Nat Prod, 2023)
pIC50: −log10 of the molar value.

Tests used:
[1] = system: A549; assay: Growth inhibition in human A549 cells assessed as reduction in cell viability at 40 uM incubated for 48 hrs by MTS assay relative to control; type: functional; settings: read-out: GI
[2] = system: MDA-MB-231; assay: Cytotoxicity against human MDA-MB-231 cells assessed as reduction in cell viability incubated for 48 hrs by MTS assay; type: functional, cell-based; settings: MDA-MB-231, 48 h
[3] = system: SW480; assay: Cytotoxicity against human SW480 cells assessed as reduction in cell viability incubated for 48 hrs by MTS assay; type: functional, cell-based; settings: SW480, 48 h
[4] = system: A549; assay: Cytotoxicity against human A549 cells assessed as reduction in cell viability incubated for 48 hrs by MTS assay; type: functional, cell-based; settings: A549, 48 h
[5] = system: HL-60; assay: Growth inhibition in human HL-60 cells assessed as reduction in cell viability at 40 uM incubated for 48 hrs by MTS assay relative to control; type: functional; settings: read-out: GI
[6] = system: MDA-MB-231; assay: Growth inhibition in human MDA-MB-231 cells assessed as reduction in cell viability at 40 uM incubated for 48 hrs by MTS assay relative to control; type: functional; settings: read-out: GI
[7] = Cytotoxicity against human BEAS-2B cells assessed as reduction in cell viability incubated for 48 hrs by MTS assay; type: toxicity, cell-based
[8] = system: SMMC-7721; assay: Growth inhibition in human SMMC-7721 cells assessed as reduction in cell viability at 40 uM incubated for 48 hrs by MTS assay relative to control; type: functional; settings: read-out: GI
[9] = system: HL-60; assay: Cytotoxicity against human HL-60 cells assessed as reduction in cell viability incubated for 48 hrs by MTS assay; type: functional, cell-based; settings: HL-60, 48 h
[10] = system: SW480; assay: Growth inhibition in human SW480 cells assessed as reduction in cell viability at 40 uM incubated for 48 hrs by MTS assay relative to control; type: functional; settings: read-out: GI
[11] = system: SMMC-7721; assay: Cytotoxicity against human SMMC-7721 cells assessed as reduction in cell viability incubated for 48 hrs by MTS assay; type: functional, cell-based; settings: SMMC-7721, 48 h
[12] = system: SMMC-7721; assay: Induction of apoptosis in human SMMC-7721 cells assessed as early apoptotic cells at 5 uM incubated for 24 hrs by Annexin V-PE/7-AAD staining based flow cytometry analysis (Rvb= 0.231%); type: functional
[13] = system: SMMC-7721; assay: Induction of apoptosis in human SMMC-7721 cells assessed as necrotic cells at 5 uM incubated for 24 hrs by Annexin V-FITC/PI staining based flow cytometry analysis (Rvb= 0.572%); type: functional
[14] = system: SMMC-7721; assay: Induction of apoptosis in human SMMC-7721 cells assessed as viable cells at 10 uM incubated for 24 hrs by Annexin V-PE/7-AAD staining based flow cytometry analysis (Rvb= 98.6%); type: functional; settings: read-out: Activity
[15] = system: SMMC-7721; assay: Induction of apoptosis in human SMMC-7721 cells assessed as viable cells at 5 uM incubated for 24 hrs by Annexin V-PE/7-AAD staining based flow cytometry analysis (Rvb= 98.6%); type: functional; settings: read-out: Activity
[16] = system: SMMC-7721; assay: Induction of apoptosis in human SMMC-7721 cells assessed as late apoptotic cells at 20 uM incubated for 24 hrs by Annexin V-PE/7-AAD staining based flow cytometry analysis (Rvb= 0.627%); type: functional
[17] = system: SMMC-7721; assay: Induction of apoptosis in human SMMC-7721 cells assessed as late apoptotic cells at 5 uM incubated for 24 hrs by Annexin V-PE/7-AAD staining based flow cytometry analysis (Rvb= 0.627%); type: functional
[18] = system: SMMC-7721; assay: Induction of apoptosis in human SMMC-7721 cells assessed as necrotic cells at 20 uM incubated for 24 hrs by Annexin V-FITC/PI staining based flow cytometry analysis (Rvb= 0.572%); type: functional
[19] = system: SMMC-7721; assay: Induction of apoptosis in human SMMC-7721 cells assessed as viable cells at 20 uM incubated for 24 hrs by Annexin V-PE/7-AAD staining based flow cytometry analysis (Rvb= 98.6%); type: functional; settings: read-out: Activity
[20] = system: SMMC-7721; assay: Induction of apoptosis in human SMMC-7721 cells assessed as early apoptotic cells at 20 uM incubated for 24 hrs by Annexin V-PE/7-AAD staining based flow cytometry analysis (Rvb= 0.231%); type: functional
[21] = system: SMMC-7721; assay: Induction of apoptosis in human SMMC-7721 cells assessed as early apoptotic cells at 10 uM incubated for 24 hrs by Annexin V-PE/7-AAD staining based flow cytometry analysis (Rvb= 0.231%); type: functional
[22] = system: SMMC-7721; assay: Induction of apoptosis in human SMMC-7721 cells assessed as necrotic cells at 10 uM incubated for 24 hrs by Annexin V-FITC/PI staining based flow cytometry analysis (Rvb= 0.572%); type: functional
[23] = system: SMMC-7721; assay: Induction of apoptosis in human SMMC-7721 cells assessed as late apoptotic cells at 10 uM incubated for 24 hrs by Annexin V-PE/7-AAD staining based flow cytometry analysis (Rvb= 0.627%); type: functional

Compound	inhibition of growth at 40 µM [1] [%]	pIC50 [2]	pIC50 [3]	pIC50 [4]	inhibition of growth at 40 µM [5] [%]	inhibition of growth at 40 µM [6] [%]	IC50 at 48 h [7] [nM]	inhibition of growth at 40 µM [8] [%]	pIC50 [9]	inhibition of growth at 40 µM [10] [%]	pIC50 [11]	other results
CC(C)=CCc1c(O)cc(O)c2c1O[C@]13C(=C[C@H]4C[C@H]1C(C)(C)O[C@@]3(CC=C(C)C)C4=O)C2=O	> 50	5.89	6.00	6.10	> 50	> 50	700	> 50	5.96	> 50	6.30	
CC(C)=CC[C@@]12OC(C)(C)[C@@H]3C[C@H](C=C4C(=O)c5c(O)cc(O)c(CCC(C)(C)O)c5O[C@]431)C2=O	> 50	5.21	5.42	5.54	> 50	> 50	7700	> 50	5.31	> 50	5.68	
CC1(C)C=Cc2c(cc(O)c3c(=O)c4ccc(O)c(O)c4oc23)O1	> 50	5.05	5.40	5.41	> 50	> 50	21100	> 50		> 50	5.66	
CC(C)=CC[C@@]12OC(C)(C)[C@@H]3C[C@H](C=C4C(=O)c5c(O)cc(O)cc5O[C@]431)C2=O	> 50	5.24	5.43	5.59	> 50	> 50	3200	> 50	5.20	> 50	5.85	Activity [12]: 3.74%; Activity [13]: 1.8%; viability at 10 µM [14]: 50%; viability at 5 µM [15]: 85.4%; Activity [16]: 68.7%; Activity [17]: 9.08%; Activity [18]: 3.79%; viability at 20 µM [19]: 6.98%; Activity [20]: 20.5%; Activity [21]: 12.7%; Activity [22]: 8.22%; Activity [23]: 29.1%
CC(C)=CC[C@@]12OC(C)(C)[C@@H]3C[C@H](C=C4C(=O)c5c(O)cc6c(c5O[C@]431)CCC(C)(C)O6)C2=O	> 50	5.64	6.00	5.54	> 50	> 50	1100	> 50	5.77	> 50	6.00	
CC(C)(O)CCc1c(O)cc(O)c2c(=O)c3ccc(O)c(O)c3oc12	> 50	4.56	5.21	5.14	> 50	> 50	20400	> 50	5.41	> 50	5.66	
COc1cccc2c1C(=O)c1c(O)c3c(c(O)c1C2=O)C[C@@](O)(C(=O)CO)C[C@@H]3O[C@H]1C[C@H](N)[C@H](O)[C@H](C)O1 [DOXORUBICIN]												Activity [12]: 0.796%; Activity [13]: 1.85%; viability at 5 µM [15]: 1.34%; Activity [17]: 96%
